Experimental findings from patent US20240165259A1, “BIOORTHOGONAL REACTION SUITABLE FOR CLICK/UNCLICK APPLICATIONS” (DANA-FARBER CANCER INSTITUTE, INC., priority 2021, published 2024) are described below.

For the assay, the target named is T1, lysozyme-COT 15 (Gallus gallus, UniProt P00698).
T1 construct: purchased
The assay can be described thus: In vitro protein labeling of lysozyme-COT 15 with hydroxylamine 13 (in-gel fluorescence, intact MS). In kind it is biochemical. The method, then: To test the bioorthogonality of the hydroamination reaction, in vitro protein labeling experiments were performed. Fluorophore-conjugated hydroxylamine 13 was first assembled from 6-carboxytetramethylrhodamine and hydroxylamine 12, which was in turn synthesized by nucleophilic displacement of iodide 11 with N-methylhydroxylamine hydrochloride (FIG. 4A). […] With both reaction components in hand, cyclooctyne-functionalized lysozyme 15 was treated with hydroxylamine 13 (0-200 μM) in PBS for 2 hours and analyzed by in-gel fluorescence (FIG. 4C). Labeling occurred in a concentration-dependent manner, and labeling was saturated at 100 μM hydroxylamine. […]
Lysozyme (CAS 12650-88-3, 50 mg/mL in deionized H2O) was diluted into phosphate-buffered saline (PBS, pH 7.4) to a final concentration of 10 mg/mL. […] The concentration of lysozyme was determined by A280 measurement in denaturing buffer (pH 7.0, 6 M guanidinium, 30 mM MOPS) on a UV-vis spectrophotometer. […]
A solution of lysozyme-COT 15 (5.0 μL, 0.15 mg/mL) was aliquoted into 6 samples. […] In-gel fluorescence was imaged with a Typhoon™ FLA 9500 (GE) at 532 nm with a photomultiplier tube (PMT) setting of 500 V. The experiment was carried out in triplicate (FIG. 8).
A solution of lysozyme-COT 15 (5.0 μL, 0.15 mg/mL) was aliquoted each into 6 samples. […] Samples were snap frozen under liquid nitrogen until all samples were ready to be loaded on the gel. […]

T1 sequence (P00698 19-147): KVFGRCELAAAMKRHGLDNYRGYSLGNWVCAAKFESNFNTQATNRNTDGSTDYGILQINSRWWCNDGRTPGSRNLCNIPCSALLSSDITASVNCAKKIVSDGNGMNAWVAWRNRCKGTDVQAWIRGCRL

Consider `CN(O)CCOCCNC(=O)c1ccc2c(c1)C1(OC2=O)c2ccc(N(C)C)cc2Oc2cc(N(C)C)ccc21` [compound 13, 3′,6′-bis(dimethylamino)-N-(2-(2-(hydroxy(methyl)amino)ethoxy)ethyl)-3-oxo-3H-spiro[isobenzofuran-1,9′-xanthene]-6-carboxamide], for which the “time to in-gel fluorescence signal saturation” value (200 μM 13, quenched with N,N-diethylhydroxylamine (20 mM)) is no more than 1 h. Besides, the “hydroxylamine concentration at which labeling was saturated” value (lysozyme-COT 15, 0-200 μM 13, PBS, 2 hours, in-gel fluorescence) was determined as 100 µM.
